Data: patent US20240116985A1, “STAPLED PEPTIDES AND METHODS THEREOF” (priority 2020, published 2024)
Like-named read-outs stand apart in the source and are kept apart here.

Assays:
[1] = target: T1, beta-catenin/TCF4 engagement (Homo sapiens, UniProt P35222); test: Nano-BRET target engagement assay (B-cat-Halo & TCF4-Luc in HEK293 cells); type: cell-based; details: read-out: NanoBRET Abs IC50
T1 construct: expressed in transfected cells; host or cells: HEK293
T1 sequence (P35222 1-781): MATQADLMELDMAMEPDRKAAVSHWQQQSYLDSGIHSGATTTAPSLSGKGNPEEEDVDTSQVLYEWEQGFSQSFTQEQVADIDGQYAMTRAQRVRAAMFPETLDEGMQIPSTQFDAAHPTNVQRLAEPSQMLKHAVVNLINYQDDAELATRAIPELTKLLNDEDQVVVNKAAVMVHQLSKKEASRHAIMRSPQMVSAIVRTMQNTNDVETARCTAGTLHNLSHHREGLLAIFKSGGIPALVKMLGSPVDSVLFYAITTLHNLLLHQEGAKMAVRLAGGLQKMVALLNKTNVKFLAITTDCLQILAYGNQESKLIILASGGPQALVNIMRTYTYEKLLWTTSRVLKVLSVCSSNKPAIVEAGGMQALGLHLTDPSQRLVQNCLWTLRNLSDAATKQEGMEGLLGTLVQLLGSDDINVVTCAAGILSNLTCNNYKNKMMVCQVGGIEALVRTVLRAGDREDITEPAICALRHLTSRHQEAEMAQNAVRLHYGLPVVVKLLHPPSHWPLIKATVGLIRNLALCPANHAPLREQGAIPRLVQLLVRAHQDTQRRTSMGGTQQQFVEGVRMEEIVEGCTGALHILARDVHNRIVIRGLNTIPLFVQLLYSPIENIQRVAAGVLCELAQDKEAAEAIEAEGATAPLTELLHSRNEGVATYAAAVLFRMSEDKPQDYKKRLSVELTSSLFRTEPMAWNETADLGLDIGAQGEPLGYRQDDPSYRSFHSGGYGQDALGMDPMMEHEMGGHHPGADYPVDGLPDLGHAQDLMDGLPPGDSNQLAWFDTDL

[2] = target: T2, full-length beta-Catenin (Uniprot ID P35222) (Homo sapiens, UniProt P35222); test: Fluorescence polarization IC50 (beta-catenin / 5FAM-TCF4 10-53 competition); type: binding; details: fluorescence polarization; read-out: beta-Catenin FP IC50
T2 construct: 10 nM full-length beta-Catenin (Uniprot ID P35222)
T2 sequence (P35222 1-781): T1 sequence (P35222 1-781)

SMILES | IC50 ([1]; absolute IC50) | IC50 [2] | IC50 [1]
CCCC[C@@H]1NC(=O)[C@H](CC(=O)O)NC(=O)[C@]2(CC=CCCCC3(CCCC=CCCCCCC[C@@](C)(C(=O)N[C@@H](Cc4ccccc4)C(=O)N[C@@H](Cc4csc5ccccc45)C(=O)N[C@@H](CCC(N)=O)C(N)=O)NC(=O)[C@H](CC(C)C)NC(=O)[C@H](Cc4ccccc4)NC(=O)[C@H](C)NC(=O)[C@H](C)NC(=O)[C@H](CCC(=O)O)NC(=O)[C@H](CC(=O)O)NC3=O)NC1=O)CCCN2C(C)=O (stereo partly drawn) [I-1523, Ac-PL3-Asp-nLeu-B5-Asp-Glu-Ala-Ala-Phe-Leu-S8-Phe-BztA-Gln-NH2] | 8000 nM | 29 nM | –
CC(=O)N1CCC[C@]12CC=CCCCC1(CCCC=CCCCCCC[C@@](C)(C(=O)N[C@@H](Cc3ccccc3)C(=O)N[C@@H](Cc3csc4ccccc34)C(=O)N[C@@H](CCC(N)=O)C(N)=O)NC(=O)[C@H](CCC(N)=O)NC(=O)[C@H](Cc3ccccc3)NC(=O)[C@H](C)NC(=O)[C@H](C)NC(=O)[C@H](CCC(=O)O)NC(=O)[C@H](CC(=O)O)NC1=O)NC(=O)[C@H](CCC(N)=O)NC(=O)[C@H](CC(=O)O)NC2=O (stereo partly drawn) [I-1539, Ac-PL3-Asp-Gln-B5-Asp-Glu-Ala-Ala-Phe-Gln-S8-Phe-BztA-Gln-NH2] | > 20000 nM | 36 nM | –
CC(=O)N1CCC[C@]12CC=CCCCC1(CCCC=CCCCOC(=O)N3CC[C@@](C(=O)N[C@@H](Cc4ccccc4Cl)C(=O)N[C@@H](Cc4csc5ccccc45)C(N)=O)(C3)NC(=O)[C@H](CC(C)C)NC(=O)[C@H](Cc3ccccc3)NC(=O)[C@H](C)NC(=O)[C@H](C)NC(=O)[C@H](Cc3cccc(C(=O)O)c3)NC(=O)[C@H](CC(=O)O)NC1=O)NC(=O)[C@H](CC(C)(C)C)NC(=O)[C@H](CC(=O)O)NC2=O (stereo partly drawn) [I-1852, Ac-PL3-Asp-Npg-B5-Asp-3COOHF-Ala-Ala-Phe-Leu-PyrS2-2C1F-BztA-NH2] | – | 48 nM | 4900 nM
CC(=O)N1CCC[C@]12CC=CCCCC1(CCCC=CCCCOC(=O)N3CC[C@@](C(=O)N[C@@H](Cc4ccccc4Cl)C(=O)N[C@@H](Cc4csc5ccccc45)C(=O)N[C@H](C(N)=O)C(C)C)(C3)NC(=O)[C@H](C)NC(=O)[C@H](Cc3ccccc3)NC(=O)[C@H](C)NC(=O)[C@H](C)NC(=O)[C@H](Cc3cccc(C(=O)O)c3)NC(=O)[C@H](CC(=O)O)NC1=O)NC(=O)[C@H](CC(C)(C)C)NC(=O)[C@H](CC(=O)O)NC2=O (stereo partly drawn) [I-2024, Ac-PL3-Asp-Npg-B5-Asp-3COOHF-Ala-Ala-Phe-Ala-PyrS2-2C1F-BztA-Val-NH2] | – | 78 nM | 17900 nM
CC(=O)N1CCC[C@]12CC=CCCCCC1(CCCCC=CCCOC(=O)N3CC[C@@](C(=O)N[C@@H](Cc4ccccc4C(F)(F)F)C(=O)N[C@@H](Cc4csc5ccccc45)C(=O)N[C@@H](CCC(N)=O)C(N)=O)(C3)NC(=O)[C@H](CC(C)C)NC(=O)[C@H](Cc3ccccc3)NC(=O)[C@H](C)NC(=O)[C@H](C)NC(=O)[C@H](Cc3cccc(C(=O)O)c3)NC(=O)[C@H](CC(=O)O)NC1=O)NC(=O)[C@H](CC(C)(C)C)NC(=O)[C@H](CC(=O)O)NC2=O (stereo partly drawn) [I-2508, Ac-PL3-Asp-Npg-B6-Asp-3COOHF-Ala-Ala-Phe-Leu-PyrS1-2F3MeF-BztA-Gln-NH2] | 27300 nM | 152 nM | –
CC(=O)N1CCC[C@]12CC=CCCCC1(CCCC=CCCCOC(=O)N3CC[C@@](C(=O)N[C@@H](Cc4ccsc4)C(=O)N[C@@H](Cc4csc5ccccc45)C(=O)N[C@@H](CCC(N)=O)C(N)=O)(C3)NC(=O)[C@H](CC3CCCCC3)NC(=O)[C@H](Cc3ccccc3)NC(=O)[C@H](C)NC(=O)[C@H](C)NC(=O)[C@H](CN(CC(=O)O)CC(F)(F)F)NC(=O)[C@H](CC(=O)O)NC1=O)NC(=O)[C@H](CC(C)(C)C)NC(=O)[C@H](CC(=O)O)NC2=O (stereo partly drawn) [I-1774, Ac-PL3-Asp-Npg-B5-Asp-TfeGA-Ala-Ala-Phe-Cha-PyrS2-3Thi-BztA-Gln-NH2] | 8900 nM | 28 nM | –
CC(=O)N1CCC[C@]12CC=CCCCC1(CCCC=CCCCOC(=O)N3CC[C@@](C(=O)N[C@@H](Cc4ccsc4)C(=O)N[C@@H](Cc4csc5ccccc45)C(=O)N[C@@H](CC(N)=O)C(N)=O)(C3)NC(=O)[C@H](CC(N)=O)NC(=O)[C@H](Cc3ccccc3)NC(=O)[C@H](C)NC(=O)C(C)(C)NC(=O)[C@H]([C@@H](C)O)NC(=O)[C@H](CC(N)=O)NC1=O)NC(=O)[C@H](CC(C)(C)C)NC(=O)[C@H](CC(=O)O)NC2=O (stereo partly drawn) [I-2415, Ac-PL3-Asp-Npg-B5-Asn-Thr-Aib-Ala-Phe-Asn-PyrS2-3Thi-BztA-Asn-NH2] | > 20000 nM | 147 nM | –
CCCC[C@@H]1NC(=O)[C@H](CC(=O)O)NC(=O)[C@]2(CC=CCCCC3(CCCC=CCCCOC(=O)N4CC[C@@](C(=O)N[C@@H](Cc5ccsc5)C(=O)N[C@@H](Cc5csc6ccccc56)C(=O)N[C@@H](CCC(N)=O)C(N)=O)(C4)NC(=O)[C@H](CC(C)C)NC(=O)[C@H](Cc4ccccc4)NC(=O)[C@H](C)NC(=O)[C@H](C)NC(=O)[C@H](CC(=O)O)NC(=O)[C@H](CC(=O)O)NC3=O)NC1=O)CCCN2C(C)=O (stereo partly drawn) [I-1400, Ac-PL3-Asp-nLeu-B5-Asp-Asp-Ala-Ala-Phe-Leu-PyrS2-3Thi-BztA-Gln-NH2] | 20300 nM | 5 nM | –
CC(=O)N1CCC[C@]12CC=CCCCC1(CCCC=CCCCOC(=O)N3CC[C@@](C(=O)N[C@@H](Cc4ccccc4C(F)(F)F)C(=O)N[C@@H](Cc4ccc(C)c(C)c4)C(=O)N[C@@H](C)C(N)=O)(C3)NC(=O)[C@H](CC(C)C)NC(=O)[C@H](Cc3ccccc3)NC(=O)[C@H](C)NC(=O)[C@H](CCC(N)=O)NC(=O)[C@H](Cc3cccc(C(=O)O)c3)NC(=O)[C@H](CC(=O)O)NC1=O)NC(=O)[C@H](CC(C)(C)C)NC(=O)[C@H](CC(=O)O)NC2=O (stereo partly drawn) [I-2294, Ac-PL3-Asp-Npg-B5-Asp-3COOHF-Gln-Ala-Phe-Leu-PyrS2-2F3MeF-34MeF-Ala-NH2] | 4600 nM | 16 nM | –
CC(=O)N1CCC[C@]12CC=CCCCC1(CCCC=CCCCOC(=O)N3CC[C@@](C(=O)N[C@@H](Cc4ccsc4)C(=O)N[C@@H](Cc4csc5ccccc45)C(=O)N[C@@H](CCC(N)=O)C(N)=O)(C3)NC(=O)[C@H](CC(N)=O)NC(=O)[C@H](Cc3ccccc3)NC(=O)[C@H](C)NC(=O)[C@H](C)NC(=O)[C@H](CN(CC(=O)O)Cc3c(F)c(F)c(F)c(F)c3F)NC(=O)[C@H](CC(=O)O)NC1=O)NC(=O)[C@H](CC(C)(C)C)NC(=O)[C@H](CC(=O)O)NC2=O (stereo partly drawn) [I-1638, Ac-PL3-Asp-Npg-B5-Asp-[Pfbn]GA-Ala-Ala-Phe-Asn-PyrS2-3Thi-BztA-Gln-NH2] | 14500 nM | 9 nM | –
CC(=O)N1CCC[C@]12CC=CCCCC1(CCCC=CCCCOC(=O)N3CC[C@@](C(=O)N[C@@H](Cc4ccsc4)C(=O)N[C@@H](Cc4csc5ccccc45)C(=O)N[C@@H](CCC(N)=O)C(N)=O)(C3)NC(=O)[C@H]([C@@H](C)O)NC(=O)[C@H](Cc3ccccc3)NC(=O)[C@H](C)NC(=O)C(C)(C)NC(=O)[C@H]([C@@H](C)O)NC(=O)[C@H](CC(N)=O)NC1=O)NC(=O)[C@H](CC(C)(C)C)NC(=O)[C@H](CC(=O)O)NC2=O (stereo partly drawn) [I-2409, Ac-PL3-Asp-Npg-B5-Asn-Thr-Aib-Ala-Phe-Thr-PyrS2-3Thi-BztA-Gln-NH2] | 50000 nM | 397 nM | –
